Reference: ChEMBL document CHEMBL1125969, “Design, synthesis and cytotoxic evaluation of keto-C-glycoside fatty acid conjugates” (Bioorg Med Chem Lett, 1991)
pIC50: −log10 of the molar value.

The compounds below were run on LFCl2A (assay: In vitro cytotoxicity against LFCl2A (rat hepatocarcinoma) cells.). Conditions: not given.
Type: functional, cell-based

Row | Structure (SMILES) | pIC50
1 | O=c1[nH]cc(F)c(=O)[nH]1 [FLUOROURACIL] | 4.55

Same assay, conditions: read-out: IC50

Row | Structure (SMILES) | pIC50
2 | CCCC(=O)OC[C@H]1O[C@H](C2CCCC=C2C)C=CC1=O (some centres undefined) | 6.46
3 | CC/C=C\C/C=C\C/C=C\C/C=C\C/C=C\C/C=C\CCC(=O)OC[C@H]1O[C@H](CC2=CCCCC2)C=CC1=O | 7.30
4 | CC1=CCCCC1[C@H]1O[C@H](CO)C=CC1=O (some centres undefined) | 5.46
5 | CCCCCCCC/C=C\CCCCCCCC(=O)OC[C@H]1O[C@H](CC2=CCCCC2)C=CC1=O | 7.10
6 | O=C1C=C[C@@H](CO)O[C@@H]1CC1=CCCCC1 | 5.02
7 | CCCCC/C=C\C/C=C\C/C=C\C/C=C\CCCC(=O)OC[C@@H]1C=CC(=O)[C@@H](C2CCCC=C2C)O1 (some centres undefined) | 5.30
8 | CCCCC/C=C\C/C=C\C/C=C\C/C=C\CCCC(=O)OC[C@H]1O[C@H](CC2=CCCCC2)C=CC1=O | 5.15
9 | CCCCCCCC/C=C\CCCCCCCC(=O)OC[C@H]1O[C@H](C2CCCC=C2C)C=CC1=O (some centres undefined) | 7.30
10 | CC(=O)OC[C@H]1O[C@H](CC2=CCCCC2)C=CC1=O | 6.82
11 | CC/C=C\C/C=C\C/C=C\C/C=C\C/C=C\C/C=C\CCC(=O)OC[C@H]1O[C@H](C2CCCC=C2C)C=CC1=O (some centres undefined) | 7.70
12 | O=C1C=C[C@@H](CC2=CCCCC2)O[C@@H]1CO | 5.52
13 | CCCCC/C=C\C/C=C\C/C=C\C/C=C\CCCC(=O)OC[C@H]1O[C@H](C2CCCC=C2C)C=CC1=O (some centres undefined) | 9.00
14 | CC/C=C\C/C=C\C/C=C\C/C=C\C/C=C\C/C=C\CCC(=O)OC[C@@H]1C=CC(=O)[C@@H](CC2=CCCCC2)O1 | 4.52
15 | CCCCCCCC/C=C\CCCCCCCC(=O)OC[C@@H]1C=CC(=O)[C@@H](C2CCCC=C2C)O1 (some centres undefined) | 4.46
16 | CCCC(=O)OC[C@H]1O[C@H](CC2=CCCCC2)C=CC1=O | 7.05
17 | CCCCC/C=C\C/C=C\C/C=C\C/C=C\CCCC(=O)OC[C@@H]1C=CC(=O)[C@@H](CC2=CCCCC2)O1 | 4.46
18 | CC(=O)OC[C@H]1O[C@H](C2CCCC=C2C)C=CC1=O (some centres undefined) | 6.15
19 | CC/C=C\C/C=C\C/C=C\C/C=C\C/C=C\C/C=C\CCC(=O)OC[C@@H]1C=CC(=O)[C@@H](C2CCCC=C2C)O1 (some centres undefined) | 4.19
